Experiments:
[1] = system: pS6K1 (p-p70 S6 Kinase (Thr389)) in MCF-7 cells; experiment: AlphaLISA Ultra pS6K1 assay; type: cell-based; details: Homo sapiens, MCF7, 2 h, 2 hours compound incubation
Description: Example 155: AlphaLISA Ultra pS6K1 assay
(§1) Assay Protocol: • 1. Seed MCF-7 cells in Corning 3701 plate and incubate for 20˜24 hour. 12,000˜16,000 cells will be seeded in 36 μL medium per well. • 2. Change the culture medium with fresh medium and incubate for another 2 hours. • 3. Add 12 μL (4×) compounds into the cell plate by HAMILTON. Final DMSO concentration is 0.5%. Incubate for 2 hours. • 4. Aspirate 38 μL by HAMILTON, 10 μL rest per well. • 5. Add 10 μL 2× lysis buffer using HAMILTON; total volume in wells is 20 μL. Allow cells to shake for 30 min. Cover plate by plastic foil and store plate at −80° C. up to analysis. • 6. Thaw cell lysate at RT and transfer 10 ul lysate to assay plate (Optiplate-384). • 7. Add 5 ul acceptor beads into assay plate and incubation for 2 hours • 8. Add 5 ul donor beads and incubation for 2 hours • 9. Count the plate by EnSpire Multimode Plate Reader

[2] = system: pAKT (p-Akt 1/2/3 (Ser473)) in MCF-7 cells; experiment: AlphaLISA Ultra pAKT assay; type: cell-based; details: Homo sapiens, MCF7, 2 hours compound incubation
Description: Example 156: AlphaLISA Ultra pAKT Assay
as §1, with “1.” for “1. Seed”, “for 20-24” for “for 20˜24”, “hour. 16,000-20,000” for “hour. 12,000˜16,000”, “38 j L” for “38 μL”

Compound	IC50 [1] [µM]	IC50 [2] [µM]
C=CCN(c1cc(C(=O)N2CCN(c3ccccc3S(N)(=O)=O)CC2)c(C)cc1C)C1CCN(c2ccccc2C#N)CC1 [I-46, 2-(4-(5-(Allyl(1-(2-cyanophenyl)piperidin-4-yl)amino)-2,4-dimethylbenzoyl)piperazin-1-yl)benzenesulfonamide]	1 to 3	> 10
Cc1cc(C)c(C(=O)N2CCN(c3ccccc3)[C@H](C)C2)cc1NC1CCN(c2ccccc2C#N)CC1 [I-47, (R)-2-(4-(2,4-Dimethyl-5-(3-methyl-4-phenylpiperazine-1-carbonyl)phenylamino)piperidin-1-yl)benzonitrile]	1 to 3	> 10
CCN(c1cc(C(=O)N2CCN(c3ccccc3S(N)(=O)=O)CC2)c(C)cc1C)C1CCN(c2ccccc2C#N)CC1 [I-51, 2-(4-(5-((1-(2-Cyanophenyl)piperidin-4-yl)(ethyl)amino)-2,4-dimethylbenzoyl)piperazin-1-yl)benzenesulfonamide]	1 to 3	> 10
Cc1cc(C)c(C(=O)N2CCN(c3ccccc3S(N)(=O)=O)CC2)cc1NC1CCN(c2ccccc2C#N)CC1(C)C (centres unmarked) [I-52, 2-(4-(5-(1-(2-Cyanophenyl)-3,3-dimethylpiperidin-4-ylamino)-2,4-dimethylbenzoyl)piperazin-1-yl)benzenesulfonamide]	> 10	> 10
Cc1cc(C)c(C(=O)N2CCN(c3ccccc3C#N)[C@@H](CO)C2)cc1NC1CCN(c2ccccc2C#N)CC1 [I-53]	0.01 to 1	> 10
Cc1cc(C)c(C(=O)N2CCN(c3ccccc3)[C@@H](CO)C2)cc1NC1CCN(c2ccccc2)CC1 [I-54]	1 to 3	> 10
Cc1cc(C)c(C(=O)N2CCN(c3ccccn3)CC2)cc1NC1CCN(c2ccccc2C#N)CC1 [I-55]	1 to 3	> 10
Cc1cc(C)c(C(=O)N2CCN(c3ccccc3C#N)CC2)cc1NC1CCN(c2ccccc2)CC1 [I-56]	1 to 3	> 10
Cc1cc(C)c(C(=O)N2CCN(c3ccccc3)CC2)cc1NC1CCN(c2ccccc2C#N)CC1 [I-57]	1 to 3	> 10
CNC(=O)C1CN(C(=O)c2cc(N(C)C3CCN(c4ccccc4C#N)CC3)c(C)cc2C)CCN1c1ccccc1 (centres unmarked) [I-58]	0.01 to 1	> 10
Cc1cc(C)c(N(C)C2CCN(c3ccccc3C#N)CC2)cc1C(=O)N1CCN(c2ccccc2S(N)(=O)=O)CC1 [I-59]	3 to 5	> 10
Cc1cc(C)c(C(=O)N2CCN(c3ccccc3S(C)(=N)=O)CC2)cc1NC1CCN(c2ccccc2C#N)CC1 (centres unmarked) [I-62, 2-(4-{[5-(4-{2-[imino(methyl)oxo-λ^6-sulfanyl]phenyl}piperazine-1-carbonyl)-2,4-dimethylphenyl]amino}piperidin-1-yl)benzonitrile]	0.01 to 1	> 10
Cc1cc(C)c(C(=O)N2CCN(c3ccccc3)C(CO)C2)cc1NC1CCN(c2ccccc2C#N)CC1 (centres unmarked) [I-63, 2-[4-({5-[3-(Hydroxymethyl)-4-phenylpiperazine-1-carbonyl]-2,4-dimethylphenyl}amino)piperidin-1-yl]benzonitrile]	0.01 to 1	> 10

Further lines, results first:

IC50 [1] [µM]	IC50 [2] [µM]	Compound
0.01 to 1	> 10	CNC(=O)c1ccccc1N1CCN(C(=O)c2cc(NC3CCN(c4ccccc4C#N)CC3)c(C)cc2C)CC1 [I-64]
0.01 to 1	> 10	CNC(=O)c1cc(F)ccc1N1CCN(C(=O)c2cc(NC3CCN(c4ccccc4C#N)CC3)c(C)cc2C)CC1 [I-65]
0.01 to 1	> 10	Cc1cc(C)c(C(=O)N2CCN(c3ccccc3S(N)(=O)=O)CC2)nc1NC1CCN(c2ccccc2C#N)CC1 [I-66, 2-(4-(6-(1-(2-Cyanophenyl)piperidin-4-ylamino)-3,5-dimethylpicolinoyl)piperazin-1-yl)benzenesulfonamide]
0.01 to 1	> 10	Cc1cc(C)c(C(=O)N2CCN(c3ccccc3S(N)(=O)=O)CC2)cc1NC1CCN(c2ccccc2C#N)CC1 [I-67]
0.01 to 1	> 10	Cc1cc(C)c(N(C)C2CCN(c3ccccc3C#N)CC2)cc1C(=O)N1CCN(c2ccccc2C#N)CC1 [I-68, 2-[4-({5-[4-(2-cyanophenyl)piperazine-1-carbonyl]-2,4-dimethylphenyl}(methyl)amino)piperidin-1-yl]benzonitrile]
0.01 to 1	> 10	Cc1cc(C)c(C(=O)N2CCN(c3cc(F)c(F)cc3C#N)C[C@@H]2C)cc1NC1CCN(c2ccccc2C#N)CC1 [I-69, 2-[(3S)-4-(5-{[1-(2-Cyanophenyl)piperidin-4-yl]amino}-2,4-dimethylbenzoyl)-3-methylpiperazin-1-yl]-4,5-difluorobenzonitrile]
3 to 5	> 10	Cc1cc(C)c(C(=O)N2CCN(c3cccnn3)CC2)cc1NC1CCN(c2ccccc2C#N)CC1 [I-70, 2-[4-({2,4-Dimethyl-5-[4-(pyridazin-3-yl)piperazine-1-carbonyl]phenyl}amino)piperidin-1-yl]benzonitrile]
0.01 to 1	> 10	Cc1cc(C)c(C(=O)N2CCN(c3ccccc3C#N)CC2)cc1NC1CCN(c2ccccc2C#N)CC1 [I-71, 2-[4-({5-[4-(2-Cyanophenyl)piperazine-1-carbonyl]-2,4-dimethylphenyl}amino)piperidin-1-yl]benzonitrile]
3 to 5	> 10	Cc1cc(C)c(C(=O)N2CCN(c3ccc(F)cn3)C(=O)C2)cc1NC1CCN(c2ccccc2C#N)CC1 [I-72, 2-[4-({5-[4-(5-Fluoropyridin-2-yl)-3-oxopiperazine-1-carbonyl]-2,4-dimethylphenyl}amino)piperidin-1-yl]benzonitrile]
3 to 5	> 10	Cc1cc(C)c(C(=O)N2CCN(c3ccccc3)C(CO)C2)cc1NC1CCN(c2ccccc2)C1 (centres unmarked) [I-73, (4-{2,4-Dimethyl-5-[(1-phenylpyrrolidin-3-yl)amino]benzoyl}-1-phenylpiperazin-2-yl)methanol]
0.01 to 1	> 10	Cc1cc(C)c(C(=O)N2CCN(c3ccccc3F)C(CO)C2)cc1NC1CCN(c2ccccc2C#N)CC1 (centres unmarked) [I-74, 2-[4-({5-[4-(2-Fluorophenyl)-3-(hydroxymethyl)piperazine-1-carbonyl]-2,4-dimethylphenyl}amino)piperidin-1-yl]benzonitrile]
0.01 to 1	> 10	Cc1cc(C)c(C(=O)N2CCN(c3ccc(F)cc3)C(CO)C2)cc1NC1CCN(c2ccccc2C#N)CC1 (centres unmarked) [I-76, 2-[4-({5-[4-(4-fluorophenyl)-3-(hydroxymethyl)piperazine-1-carbonyl]-2,4-dimethylphenyl}amino)piperidin-1-yl]benzonitrile]
1 to 3	> 10	Cc1cc(C)c(C(=O)N2CCN(c3ccccc3C#N)CC2)cc1NC1CCCN(c2ccc(C#N)cc2)CC1 (centres unmarked) [I-80, 2-[4-(5-{[1-(4-cyanophenyl)azepan-4-yl]amino}-2,4-dimethylbenzoyl)piperazin-1-yl]benzonitrile]
> 10	> 10	Cc1cc(C)c(C(=O)N2CCN(c3ccccc3C#N)CC2)cc1NC1CCCN(c2cccc(C#N)c2)CC1 (centres unmarked) [I-81, 2-[4-(5-{[1-(3-cyanophenyl)azepan-4-yl]amino}-2,4-dimethylbenzoyl)piperazin-1-yl]benzonitrile]
> 10	> 10	Cc1cc(C#N)c(NC2CCN(c3ccccc3C#N)CC2)cc1C(=O)N1CCN(c2ccccc2S(N)(=O)=O)CC1 [I-86, 2-(4-(4-Cyano-5-(1-(2-cyanophenyl)piperidin-4-ylamino)-2-methylbenzoyl)piperazin-1-yl)benzenesulfonamide]
1 to 3	> 10	Cc1ccc(NC2CCN(c3ccccc3C#N)CC2)c(C)c1C(=O)N1CCN(c2cccc(F)c2S(N)(=O)=O)CC1 [I-87, 2-(4-(3-(1-(2-cyanophenyl)piperidin-4-ylamino)-2,6-dimethylbenzoyl)piperazin-1-yl)-6-fluorobenzenesulfonamide]
3 to 5	> 10	Cc1cc(F)c(NC2CCN(c3ccccc3C#N)CC2)cc1C(=O)N1CCN(c2ccccc2S(N)(=O)=O)CC1 [I-90, 2-(4-(5-(1-(2-cyanophenyl)piperidin-4-ylamino)-4-fluoro-2-methylbenzoyl)piperazin-1-y)benzenesulfonamide]
1 to 3	> 10	Cc1cc(C)c(C(=O)N2CCN(c3cccc(F)c3S(N)(=O)=O)CC2)cc1NC1CCN(c2c(F)cccc2C#N)CC1 [I-92, 2-(4-(5-(1-(2-Cyano-6-fluorophenyl)piperidin-4-ylamino)-2,4-dimethylbenzoyl)piperazin-1-yl)-6-fluorobenzenesulfonamide]
